# Laboratory results published in ChEMBL document CHEMBL2177093, “The design and identification of brain penetrant inhibitors of phosphoinositide 3-kinase α” (J Med Chem, 2012).
# The source made the active and inactive calls. No cut-off for these calls is given here.
# How the values were obtained:
# [1] = Oral bioavailability in CD-1 mouse; assay type: ADME, organism-based; conditions: in vivo
# [2] = Clearance in po dosed CD-1 mouse; assay type: ADME, organism-based; conditions: in vivo
# mouse Bcrp1 = assay: in vitro; conditions: dog
# [3] = Ratio of drug level in brain to plasma in CD-1 mouse at 25 mg/kg, po at 1 hr; assay type: ADME, organism-based; set-up: dose 25 mg/kg, route oral; conditions: read-out: BPR
# [4] = target: Serine/threonine-protein kinase mTOR (Homo sapiens, UniProt P42345); assay: Inhibition of human recombinant mTOR (1360 to 2549 amino acids) assessed as reduction in phosphorylation of (GFP)-4-EBP1 after 30 mins by FRET assay; conditions: read-out: Ki(app)
# [5] = Half life in po dosed CD-1 mouse; assay type: ADME, organism-based; conditions: in vivo
# [6] = Plasma protein binding in CD-1 mouse; assay type: ADME, cell-free; conditions: read-out: PPB (converted)
# [7] = Ratio of drug level in brain to plasma in CD-1 mouse at 25 mg/kg, po at 6 hrs; assay type: ADME, organism-based; set-up: dose 25 mg/kg, route oral; conditions: read-out: BPR
# Mus musculus [8] = species on record: Mus musculus; conditions: NCr, U-87MG ATCC, 3 mg/kg
# SF-539 = assay: Cytotoxicity against human SF539 cells incubated for 4 days; assay type: functional, cell-based; conditions: SF-539, 96 h
# [9] = Cytotoxicity against human U87MG cells incubated for 4 days; assay type: functional, cell-based, U-87MG ATCC; conditions: U-87 MG, 96 h
# [10] = Cytotoxicity against human A172 cells incubated for 4 days; assay type: functional, cell-based; conditions: A 172, 96 h
# [11] = Toxicity in PTEN deficient human U87MG cells xenografted in NCr nude mouse at dosed orally once daily for 24 days; assay type: organism-based, U-87MG ATCC; conditions: in vivo, po
# Mus musculus [12] = assay: Toxicity in PTEN deficient human U87MG cells xenografted in NCr nude mouse assessed as loss in body weight at 14 mg/kg, po qd for 24 days; assay type: organism-based, U-87MG ATCC; set-up: dose 14 mg/kg, route oral; conditions: in vivo, 576 h
# [13] = Cytotoxicity against human LN229 cells incubated for 4 days; assay type: functional, cell-based; conditions: LN-229, 96 h
# Mus musculus [14] = species on record: Mus musculus; conditions: NCr, U-87MG ATCC, 3 mg/kg; remark: listed apart in the source
# [15] = Cytotoxicity against human Hs683 cells incubated for 4 days; assay type: functional, cell-based; conditions: Hs 683, 96 h
# M059J = assay: Cytotoxicity against human M059J cells incubated for 4 days; assay type: functional, cell-based; conditions: 96 h
# Mus musculus [16] = species on record: Mus musculus; conditions: NCr, U-87MG ATCC, 40 mg/kg
# Mus musculus [17] = assay: Inhibition of PI3K signaling in CD-1 mouse assessed as reduction in pAKT level at 25 mg/kg, po administered as single dose measured after 1 hr post dose by immunoblotting method; assay type: functional; conditions: CD-1, 1 h
# SF-268 = assay: Cytotoxicity against human SF268 cells incubated for 4 days; assay type: functional, cell-based; conditions: SF-268, 96 h
# Mus musculus [18] = assay: Toxicity in PTEN deficient human U87MG cells xenografted in NCr nude mouse assessed as loss in body weight at 18 mg/kg, po qd for 24 days; assay type: organism-based, U-87MG ATCC; set-up: dose 18 mg/kg, route oral; conditions: in vivo, 576 h
# U-87MG ATCC = assay: Antitumor activity against PTEN deficient human U87MG cells xenografted in NCr nude mouse assessed as inhibition of tumor growth at 3 to 14 mg/kg, po qd for 24 days; assay type: functional, organism-based
# Mus musculus [19] = species on record: Mus musculus; conditions: NCr, U-87MG ATCC, 40 mg/kg; remark: listed apart in the source
# Mus musculus [20] = species on record: Mus musculus; conditions: NCr, U-87MG ATCC, 10 mg/kg
# [21] = Drug level in CD-1 mouse brain at 25 mg/kg, po administered as single dose measured after 6 hrs post dose; assay type: ADME, organism-based; set-up: dose 25 mg/kg, route oral; conditions: read-out: Drug uptake
# Mus musculus [22] = assay: Toxicity in PTEN deficient human U87MG cells xenografted in NCr nude mouse assessed as loss in body weight at 6 mg/kg, po qd for 24 days; assay type: organism-based, U-87MG ATCC; set-up: dose 6 mg/kg, route oral; conditions: in vivo, 576 h
# [23] = Drug level in CD-1 mouse brain at 25 mg/kg, po administered as single dose measured after 1 hr post dose; assay type: ADME, organism-based; set-up: dose 25 mg/kg, route oral; conditions: read-out: Drug uptake
# Mus musculus [24] = species on record: Mus musculus; conditions: NCr, U-87MG ATCC, 10 mg/kg; remark: listed apart in the source
# [25] = Ratio of drug level in brain to plasma in CD-1 mouse at 10 mg/kg, po measured at 0.5 hrs; assay type: ADME, organism-based; set-up: dose 10 mg/kg, route oral; conditions: read-out: BPR
# [26] = Protein binding in CD-1 mouse brain at 25 mg/kg, po administered as single dose; assay type: ADME, organism-based; set-up: dose 25 mg/kg, route oral; conditions: read-out: PB (converted)
# [27] = Ratio of drug level in brain to plasma in CD-1 mouse at 15 mg/kg, po at 6 hrs; assay type: ADME, organism-based; set-up: dose 15 mg/kg, route oral; conditions: read-out: BPR
# [28] = Protein binding in CD-1 mouse plasma at 25 mg/kg, po administered as single dose; assay type: ADME, organism-based; set-up: dose 25 mg/kg, route oral; conditions: read-out: PPB (converted)
# [29] = Ratio of drug level in brain to plasma in CD-1 mouse at 15 mg/kg, po at 1 hr; assay type: ADME, organism-based; set-up: dose 15 mg/kg, route oral; conditions: read-out: BPR
smiles,measurement,setting,value
CC1(C)COC1c1cc2nc(-c3cnc(N)nc3)nc(N3CCOCC3)c2s1 (stereo not given),bioavailability,[1],46%
same,CL/F,[2],52 mL/min/kg
same,"efflux ratio at 2 h, 5 µM",mouse Bcrp1,1.2
same,Kp at 1 h,[3],0.9
same,Ki,[4],21 nM
same,half-life,[5],3.3 h
same,fraction unbound,[6],0.087
same,Kp at 6 h,[7],1.2
Cc1c(C2(O)COC2)sc2c(N3CCOCC3)nc(-c3cnc(N)nc3)nc12,"efflux ratio at 2 h, 5 µM",mouse Bcrp1,7.1
COC(C)(C)c1cc2nc(-c3cnc(N)nc3)nc(N3CCOCC3)c2s1,inhibition,Mus musculus [8],Active
same,EC50,SF-539,340 nM
same,EC50,[9],290 nM
same,bioavailability,[1],25%
same,EC50,[10],380 nM
same,CL/F,[2],20 mL/min/kg
same,MTD at 576 h,[11],14 mg/kg
same,Activity,Mus musculus [12],< 15%
same,EC50,[13],400 nM
same,inhibition,Mus musculus [14],Active
same,EC50,[15],270 nM
same,EC50,M059J,590 nM
same,inhibition,Mus musculus [16],Active
same,Kp at 1 h,[3],1
same,inhibition in vivo at 25 mg/kg,Mus musculus [17],39%
same,EC50,SF-268,1000 nM
same,Activity,Mus musculus [18],Toxic
same,TGI,U-87MG ATCC,Dose-dependent effect
same,half-life,[5],20 h
same,inhibition,Mus musculus [19],Active
same,inhibition,Mus musculus [20],Active
same,concentration at 6 h,[21],350 nM
same,fraction unbound,[6],0.102
same,Activity,Mus musculus [22],Non-toxic
same,Kp at 6 h,[7],0.9
same,concentration at 1 h,[23],2140 nM
same,inhibition,Mus musculus [24],Active
CS(=O)(=O)N1CCN(Cc2cc3nc(-c4cccc5[nH]ncc45)nc(N4CCOCC4)c3s2)CC1 [PICTILISIB],Kp at 0.5 h,[25],< 0.05
CC1(C)OCCc2c1sc1c(N3CCOCC3)nc(-c3cnc(N)nc3)nc21,bioavailability,[1],93%
same,CL/F,[2],16 mL/min/kg
same,fraction unbound,[26],0.003
same,"efflux ratio at 2 h, 5 µM",mouse Bcrp1,2.3
same,Kp at 6 h,[27],1.6
same,Ki,[4],13 nM
same,half-life,[5],2.9 h
same,fraction unbound,[6],0.006
same,fraction unbound,[28],0.006
same,Kp at 1 h,[29],1.4
CC(F)(F)c1cc2nc(-c3cnc(N)nc3)nc(N3CCOCC3)c2s1,"efflux ratio at 2 h, 5 µM",mouse Bcrp1,1.7
Cc1c(C(C)(C)O)sc2c(N3CCOCC3)nc(-c3cnc(N)nc3)nc12,"efflux ratio at 2 h, 5 µM",mouse Bcrp1,5.4
COCCOC1(c2cc3nc(-c4cnc(N)nc4)nc(N4CCOCC4)c3s2)COC1,"efflux ratio at 2 h, 5 µM",mouse Bcrp1,1.4
